The values that follow come from patent US4424225A, “Thienobenzodiazepinones, pharmaceutical compositions thereof and method of use thereof” (Dr. Karl Thomae GmbH, priority 1982, dated 1984).

One data set in a line: Testing for mydriasis. The following applies: rat, in vivo, iv; pupil observed for 10 minutes. The procedure: The effect of the test substances on the pupil size in rats was investigated as follows:
The substances were administered intravenously to groups of 10 animals in at least three uniformly graduated doses. The pupil size was then observed for 10 minutes to see if there were any changes (mydriasis or miosis). […] The percentage of test animals in which mydriasis occurred was determined. The ED50 values were again determined using the method of LITCHFIELD and WILCOXON (see above).

For data set [1], the target named is muscarinic receptors (cerebral cortex). Nature of the data set: Binding to muscarinic receptors, displacement of 3H-N-methylscopolamine, cerebral cortex. On the set-up: species or system rat (male Sprague-Dawley). To be noted: 0.3 n molar 3H-NMS, 30° C., 45 minutes, pH 7.4, read-out: Receptor Binding Tests IC50, Cortex. As to the method: (§1) 3. STUDIES OF BINDING TO MUSCARINIC RECEPTORS: DETERMINATION OF THE IC50 VALUE
(§2) The organ donors were male Sprague-Dawley rats with a body weight of from about 180 to 220 gm each. After the heart, stomach, and cerebral cortex had been removed, the remainder of the operation was carried out in ice-cold Hepes-HCl buffer (pH 7.4; 100 m molar NaCl, 10 m molar MgCl2). The smooth muscle of the fundus of the stomach was separated from the mucous membrane of the stomach and subjected to preliminary homogenization. The whole heart was cut up with scissors. All the organs were then homogenized in a Potter apparatus.
(§3) For the binding test, the homogenized organs were diluted as follows:
(§4) The homogenized organ preparations were incubated at a specific concentration of the radioligand and with a series of concentrations of the non-radioactive test substances in an Eppendorf centrifuge tube at 30° C. The duration of incubation was 45 minutes. The substance 0.3 n molar ^3 H-N-methylscopolamine (^3 H-NMS) was used as the radioligand. After incubation had been brought to an end by centrifuging at 14000 g, the radioactivity in the pellet was determined. […] The proportion of non-specific binding was defined as the radioactivity which was bound in the presence of 1μ molar quinuclidinylbenzylate. […] The IC50 values of the non-labelled test substances were determined graphically. […]
In general terms: Loss of bound radioactivity is the signal in a displacement assay; it reports binding, not function.

Data set [2] in a line: Oxotremorine test: inhibition of oxotremorine-induced secretion of saliva. Also noted: species or system rat (female albino, Crl: COBS-CD (SD) BR). To be noted: rat, in vivo, iv, 15 minutes before oxotremorine 0.083 mg/kg i.v.; read-out: Oxotremorine Test, Inhibition of Salivation ED50. As to the method:
(§5) Oxotremorine, a specific agonist for muscarinic receptors, produces lesions in the mucous membrane of the stomach in rats and increases their secretion of saliva. This test method was chosen so that any selective activity of an anti-muscarinic substance on the stomach could be identified.
Ten female albino rats (of the Crl: COBS-CD (SD) BR strain) with a body weight of from 120 to 150 gm apiece were used in each treatment group and were kept without food for 24 hours before the start of the test but given free access to drinking water.
To determine, in preliminary tests, the muscarinic effect of oxotremorine on each of the symptoms studied, a dosage/activity curve was drawn up with at least three dosages for each symptom.
When the antimuscarinic substances were tested, the dosage of oxotremorine which triggered the symptom in question in 90 to 100% of the animals in the preliminary tests was used.
Secretion of saliva: 0.083 mg/kg i.v.
(§6) Each antimuscarinic substance was administered intravenously in uniformly graduated doses 15 minutes before the oxotremorine was administered. Control groups were given corresponding quantities of the solvent and suspension agent instead of the test substance. […]
(§7) The ED50 values were determined using the method described by LITCHFIELD and WILCOXON (J. Pharmacol. Exp. Ther. 96, 99, 1949).

The test system of data set [3] is oxotremorine-induced lesions in the mucous membrane of the stomach (muscarinic receptors). Briefly: Oxotremorine test: protection against oxotremorine-induced lesions of the gastric mucous membrane. To be noted: Rattus norvegicus, iv, 15 minutes before oxotremorine 0.62 mg/kg i.v., neostigmine 1 mg/kg oral. It is filed as in vivo, rat (female albino, Crl: COBS-CD (SD) BR). The procedure:
as §5
Ten female albino rats (of the Crl: COBS-CD (SD) BR strain) with a body weight of from 120 to 150 gm apiece were used in each treatment group and were kept without food for 24 hours before the start of the test but given free access to drinking water. […]
as §6, §7
The effects on lesions of the mucous membrane of the stomach were evaluated as follows:
The lesions of the gastric mucous membrane were produced by intravenous injection of 0.62 mg/kg of oxotremorine 30 minutes after oral administration of 1 mg/kg of neostigmine (a cholinesterase inhibitor). […] The protective effect of the test substances was expressed as the percentage inhibition (percentage of animals without lesions). […]

The target of data set [4] is T1, muscarinic receptors (smooth muscle of the fundus of the stomach) (Rattus norvegicus, UniProt P10980).
T1 construct: The smooth muscle of the fundus of the stomach was separated from the mucous membrane of the stomach; from tissue; host or cells: homogenized smooth muscle of the stomach fundus of male Sprague-Dawley rats
T1 sequence (P10980 1-466): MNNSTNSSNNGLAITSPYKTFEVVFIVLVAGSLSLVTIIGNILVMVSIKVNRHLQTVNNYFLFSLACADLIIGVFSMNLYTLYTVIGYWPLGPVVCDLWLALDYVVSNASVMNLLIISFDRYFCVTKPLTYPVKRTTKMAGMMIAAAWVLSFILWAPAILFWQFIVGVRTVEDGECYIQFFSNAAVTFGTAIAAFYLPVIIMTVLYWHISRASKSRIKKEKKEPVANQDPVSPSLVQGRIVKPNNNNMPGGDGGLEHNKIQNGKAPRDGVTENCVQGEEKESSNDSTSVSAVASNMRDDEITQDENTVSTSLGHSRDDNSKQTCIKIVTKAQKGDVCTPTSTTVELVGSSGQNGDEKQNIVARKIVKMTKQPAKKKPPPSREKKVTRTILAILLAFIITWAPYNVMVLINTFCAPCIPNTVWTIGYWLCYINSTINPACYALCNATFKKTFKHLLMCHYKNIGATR
Briefly: Binding to muscarinic receptors, displacement of 3H-N-methylscopolamine, smooth muscle of the fundus of the stomach. On the set-up: species or system rat (male Sprague-Dawley). To be noted: 0.3 n molar 3H-NMS, 30° C., 45 minutes, pH 7.4, read-out: Receptor Binding Tests IC50, Smooth Muscle Fundus of Stomach. The procedure:
as §1, §2, §3
Smooth muscle of the fundus of the stomach: 1:100
as §4, with “The substance 0.3 n molar ^3 H-N-methylscopolamine (^3 H-NMS) was used as the radioligand.” left out

Take `CN1CCC(CC(=O)N2c3ccccc3NC(=O)c3cscc32)CC1` [A, 4,9-Dihydro-4-[(1-methyl-4-piperidinyl)acetyl]-10H-thieno[3,4-b][1,5]benzodiazepin-10-one]: it took a dose of 0.03 mg/kg to reach the 50% effect level in the data set “Testing for mydriasis” (ED50 at 10 min). For the same molecule, the IC50 in data set [1] came to 20 nM; in data set [4] it was 75 nM. Besides, the ED50 at 0.25 h in data set [2] came to 0.0215 mg/kg. In addition, the ED50 in data set [3] (read-out: Oxotremorine Test, Anti-ulcerative Effect ED50) is 0.0078 mg/kg. Besides, the ED70 in data set [3] (read-out: Oxotremorine Test, Anti-ulcerative Effect ED70) was 0.014 mg/kg.

Usually ED50 stands for the dose at which the effect has come halfway, by size or by number of responders. A word on the IC50: it is the point on the concentration scale where inhibition reaches its midpoint.
